From PubChem BioAssay AID248 (DTP/NCI, 2004)
Inconclusive results and toxic doses are left out. Cut-off read from the data, not from the text of the source: active = T/C of 150% or more; inactive = T/C below 125%.

Tested on: L1210 leukemia ip in BDF1 mice, survival T/C
Test: NCI In Vivo Anticancer Drug Screen. Data for tumor model L1210 Leukemia (intraperitoneal) in B6D2F1 (BDF1) mice
Details: endpoint: mean survival time, higher = longer survival
Procedure, shortened: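 Transplanted-tumor mice were given test agent; controls received vehicle only. Survival readings from the two groups were divided (treated over control).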

Measured: T/C

CN(C)C(=S)[S][Sn]([c]1ccccc1)([c]1ccccc1)[c]1ccccc1
inactive: dose: 1.25 mg/kg/injection, schedule: Q01DX009 (ip), vehicle: saline with Tween-80 88 % of control | dose: 1.25 mg/kg/injection, schedule: Q04DX003 (ip), vehicle: saline with Tween-80 99 % of control | dose: 2.5 mg/kg/injection, schedule: Q01DX009 (ip), vehicle: saline with Tween-80 93 % of control | dose: 2.5 mg/kg/injection, schedule: Q04DX003 (ip), vehicle: saline with Tween-80 99 % of control | dose: 5.0 mg/kg/injection, schedule: Q01DX001 (ip), vehicle: steriod suspending solution 95 % of control | dose: 5.0 mg/kg/injection, schedule: Q01DX009 (ip), vehicle: Klucel (hydroxypropylcellulose) (HPC) 101 % of control | dose: 5.0 mg/kg/injection, schedule: Q01DX009 (ip), vehicle: saline with Tween-80 106 % of control | dose: 5.0 mg/kg/injection, schedule: Q04DX003 (ip), vehicle: Klucel (hydroxypropylcellulose) (HPC) 92 % of control | dose: 5.0 mg/kg/injection, schedule: Q04DX003 (ip), vehicle: saline with Tween-80 98 % of control | dose: 10.0 mg/kg/injection, schedule: Q01DX001 (ip), vehicle: steriod suspending solution 101 % of control | dose: 10.0 mg/kg/injection, schedule: Q01DX009 (ip), vehicle: Klucel (hydroxypropylcellulose) (HPC) 92 % of control | dose: 10.0 mg/kg/injection, schedule: Q04DX003 (ip), vehicle: Klucel (hydroxypropylcellulose) (HPC) 97 % of control | dose: 20.0 mg/kg/injection, schedule: Q01DX009 (ip), vehicle: Klucel (hydroxypropylcellulose) (HPC) 103 % of control | dose: 20.0 mg/kg/injection, schedule: Q04DX003 (ip), vehicle: Klucel (hydroxypropylcellulose) (HPC) 91 % of control | dose: 40.0 mg/kg/injection, schedule: Q01DX001 (ip), vehicle: steriod suspending solution 92 % of control

C/C(CCc1ccccc1)=N/N(C)C
inactive: dose: 100.0 mg/kg/injection, schedule: Q01DX001 (ip), vehicle: saline 97 % of control | dose: 100.0 mg/kg/injection, schedule: Q01DX009 (ip), vehicle: saline 94 % of control | dose: 200.0 mg/kg/injection, schedule: Q01DX001 (ip), vehicle: saline 95 % of control | dose: 200.0 mg/kg/injection, schedule: Q01DX009 (ip), vehicle: saline 91 % of control | dose: 400.0 mg/kg/injection, schedule: Q01DX001 (ip), vehicle: saline 96 % of control

O=C(C(=O)c1ccccc1)c1ccccc1
inactive: dose: 25.0 mg/kg/injection, schedule: Q01DX009 (ip), vehicle: water 102 % of control | dose: 50.0 mg/kg/injection, schedule: Q01DX009 (ip), vehicle: water 96 % of control | dose: 100.0 mg/kg/injection, schedule: Q01DX009 (ip), vehicle: water 102 % of control | dose: 100.0 mg/kg/injection, schedule: Q04DX003 (ip), vehicle: saline with Tween-80 101 % of control | dose: 200.0 mg/kg/injection, schedule: Q01DX009 (ip), vehicle: water 107 % of control | dose: 200.0 mg/kg/injection, schedule: Q04DX003 (ip), vehicle: saline with Tween-80 97 % of control | dose: 400.0 mg/kg/injection, schedule: Q01DX009 (ip), vehicle: water 98 % of control | dose: 400.0 mg/kg/injection, schedule: Q04DX003 (ip), vehicle: saline with Tween-80 101 % of control

O=C(Nc1ccc(Cl)c(Cl)c1)c1ccc(Cl)c(Cl)c1
inactive: dose: 50.0 mg/kg/injection, schedule: Q04DX002 (ip), vehicle: saline with Tween-80 94 % of control | dose: 100.0 mg/kg/injection, schedule: Q04DX002 (ip), vehicle: saline with Tween-80 91 % of control | dose: 200.0 mg/kg/injection, schedule: Q04DX002 (ip), vehicle: saline with Tween-80 91 % of control

CC12C3C(=O)NC45CCCC41C5(c1ccccc1)C32c1ccccc1 (stereo unspecified)
inactive: dose: 100.0 mg/kg/injection, schedule: Q01DX001 (ip), vehicle: Klucel (hydroxypropylcellulose) (HPC) 96 % of control | dose: 200.0 mg/kg/injection, schedule: Q01DX001 (ip), vehicle: Klucel (hydroxypropylcellulose) (HPC) 96 % of control | dose: 400.0 mg/kg/injection, schedule: Q01DX001 (ip), vehicle: Klucel (hydroxypropylcellulose) (HPC) 94 % of control

O=Ic1ccccc1
inactive: dose: 25.0 mg/kg/injection, schedule: Q01DX009 (ip), vehicle: Klucel (hydroxypropylcellulose) (HPC) 103 % of control | dose: 50.0 mg/kg/injection, schedule: Q01DX009 (ip), vehicle: Klucel (hydroxypropylcellulose) (HPC) 98 % of control | dose: 50.0 mg/kg/injection, schedule: Q04DX003 (ip), vehicle: Klucel (hydroxypropylcellulose) (HPC) 93 % of control | dose: 100.0 mg/kg/injection, schedule: Q04DX003 (ip), vehicle: Klucel (hydroxypropylcellulose) (HPC) 89 % of control

c1ccc2c(c1)Cc1cc3ccccc3cc1-2
inactive: dose: 50.0 mg/kg/injection, schedule: Q01DX001 (ip), vehicle: gum acacia 94 % of control | dose: 100.0 mg/kg/injection, schedule: Q01DX001 (ip), vehicle: gum acacia 95 % of control | dose: 200.0 mg/kg/injection, schedule: Q01DX001 (ip), vehicle: gum acacia 94 % of control
